{"source": "patent US20250221966A1", "about": "“RXFP1 AGONISTS” (BRISTOL-MYERS SQUIBB COMPANY, priority 2021, published 2025)", "data": [{"biological_target": "T1, human RXFP1 (Homo sapiens, UniProt Q9HBX9)", "T1 construct": "expressed in transfected cells", "T1 sequence (Q9HBX9 1-757)": "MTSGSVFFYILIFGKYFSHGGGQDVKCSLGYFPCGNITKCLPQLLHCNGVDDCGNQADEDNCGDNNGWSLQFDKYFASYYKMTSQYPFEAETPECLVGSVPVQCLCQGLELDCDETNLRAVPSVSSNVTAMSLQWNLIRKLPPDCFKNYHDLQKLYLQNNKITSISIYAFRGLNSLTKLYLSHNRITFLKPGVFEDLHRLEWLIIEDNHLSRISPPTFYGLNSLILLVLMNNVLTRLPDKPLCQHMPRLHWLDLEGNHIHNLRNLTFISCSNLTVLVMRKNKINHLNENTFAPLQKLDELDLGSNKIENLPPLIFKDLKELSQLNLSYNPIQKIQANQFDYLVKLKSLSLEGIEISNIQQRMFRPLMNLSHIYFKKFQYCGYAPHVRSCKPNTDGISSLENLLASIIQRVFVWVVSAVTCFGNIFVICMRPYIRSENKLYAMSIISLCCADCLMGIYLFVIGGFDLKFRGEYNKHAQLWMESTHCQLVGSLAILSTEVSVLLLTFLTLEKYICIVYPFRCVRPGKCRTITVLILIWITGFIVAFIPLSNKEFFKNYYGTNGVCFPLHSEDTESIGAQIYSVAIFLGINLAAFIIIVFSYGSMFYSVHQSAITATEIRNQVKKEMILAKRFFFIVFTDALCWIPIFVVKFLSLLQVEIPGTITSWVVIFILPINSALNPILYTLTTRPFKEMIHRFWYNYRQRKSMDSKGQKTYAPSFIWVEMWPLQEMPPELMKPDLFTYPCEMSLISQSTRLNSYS", "assay": "RXFP1 cAMP assay (hRXFP1 HEK293 cAMP assay, HTRF)", "assay_type": "cell-based", "conditions": "HEK293 cells stably expressing human RXFP1, 30 min at room temperature, read-out: cAMP hRXFP1 HEK293 Assay EC50", "method": "RXFP1 Cyclic Adenosine Monophosphate (cAMP) Assays. […] Cells were dissociated and suspended in assay buffer. The assay buffer was HBSS buffer (with calcium and magnesium) containing 20 mM HEPES, 0.05% BSA, and 0.5 mM IBMX. Cells (3000 cells per well, except 1500 cell per well for HEK293 cells stably expressing human RXFP1) were added to 384-well Proxiplates (Perkin-Elmer). Cells were immediately treated with test compounds in DMSO (2% final) at final concentrations in the range of 0.010 nM to 50 μM. Cells were incubated for 30 min at room temperature. The level of intracellular cAMP was determined using the HTRF HiRange cAMP assay reagent kit (Cisbio) according to manufacturer's instructions. Solutions of cryptate conjugated anti-cAMP and d2 fluorophore-labelled cAMP were made in a supplied lysis buffer separately. Upon completion of the reaction, the cells were lysed with equal volume of the d2-cAMP solution and anti-cAMP solution. […] The potency and activity of a compound to […] cAMP production was then determined by fitting to a 4-parametric logistic equation from a plot of cAMP level versus compound concentrations.", "units": {"EC50": "nM"}, "values": [{"smiles": "COc1ccc(C2=NOC3C(O)CC(O)C23)cc1C(=O)N[C@H]1[C@@H](C(=O)Nc2ccc(F)c(C(F)(F)F)c2)[C@H]2CC[C@@H]1/C2=C\\C1CC1", "note": "(single isomer, unassigned) [compound 680]", "EC50": 582}, {"smiles": "CN(C)c1c(Cl)cc(C2=NOC3COCC23)cc1C(=O)N[C@H]1[C@@H](C(=O)Nc2ccc(F)c(C(F)(F)F)c2)[C@H]2CC[C@@H]1/C2=C\\C(F)(F)F", "note": "(single isomer, unassigned) [compound 670]", "EC50": 448}, {"smiles": "CNC(=O)c1ccc(-c2ccc(OC)c(C(=O)N[C@@H]3C4CCC(/C4=C/c4ccccc4)[C@@H]3C(=O)Nc3ccc(F)c(C(F)(F)F)c3)c2)c(F)c1", "note": "(stereo partly drawn) [compound 196]", "EC50": 45}, {"smiles": "COc1ccc(-c2cc(C(N)=O)ccc2F)cc1C(=O)N[C@@H]1C2CCC(C2=C(C)C)[C@@H]1C(=O)Nc1ccc(F)c(C(F)(F)F)c1", "note": "(stereo partly drawn) [Example 121]", "EC50": 16}, {"smiles": "COc1ccc(C2=NOC3CC(CO)CC23)cc1C(=O)N[C@H]1[C@@H](C(=O)NC23CC(C)(C2)C3)[C@H]2CC[C@@H]1/C2=C\\C1CC1", "note": "(stereo partly drawn) [compound 774]", "EC50": 4.1}, {"smiles": "COc1ccc(C2=NOC3CC(CO)CC23)cc1C(=O)N[C@H]1[C@@H](C(=O)Nc2ccc(F)c(C(F)(F)F)c2)[C@H]2CC[C@@H]1/C2=C\\c1cncs1", "note": "(stereo partly drawn) [compound 803]", "EC50": 3.5}, {"smiles": "COc1ccc(-c2cc(C(OC(=O)NC34CC(C3)C4)C(F)(F)F)ccc2F)cc1C(=O)N[C@H]1[C@@H](C(=O)Nc2ccc(F)c(C(F)(F)F)c2)[C@H]2CC[C@@H]1/C2=C\\C1CC1", "note": "(single isomer, unassigned) [Example 206]", "EC50": 1}, {"smiles": "COc1ccc(C2=NOC3COCC23)cc1C(=O)N[C@H]1[C@@H](C(=O)N[C@@H](C)C(C)(C)C)[C@H]2CC[C@@H]1/C2=C\\C1CC1", "note": "(stereo partly drawn) [compound 541]", "EC50": 30}, {"smiles": "COc1ccc(-c2cccnc2)cc1C(=O)N[C@@H]1C2CCC(/C2=C/C2CC2)[C@@H]1C(=O)Nc1ccc(F)c(C(F)(F)F)c1", "note": "(stereo partly drawn) [compound 278]", "EC50": 32}, {"smiles": "COc1ccc(C2=NOC(CC(=O)O)C2)cc1C(=O)N[C@@H]1C2CCC(/C2=C/C2CCC2)[C@@H]1C(=O)Nc1ccc(F)c(C(F)(F)F)c1", "note": "(stereo partly drawn) [compound 394]", "EC50": 49}, {"smiles": "COc1ccc(C2=NOC3CC(C(C)(C)O)CC23)cc1C(=O)N[C@H]1[C@@H](C(=O)Nc2ccc(F)c(C(F)(F)F)c2)[C@H]2CC[C@@H]1/C2=C\\C1CC1", "note": "(single isomer, unassigned) [compound 462]", "EC50": 3}, {"smiles": "C=C/C=C1\\C2CCC1[C@H](C(=O)Nc1ccc(F)c(C(F)(F)F)c1)[C@@H]2NC(=O)c1cc(-c2cc(C(=O)NS(C)(=O)=O)ccc2F)ccc1OC", "note": "(stereo partly drawn) [compound 162]", "EC50": 40}, {"smiles": "COc1ccc(C2=NOC3COCC23)cc1C(=O)N[C@@H]1C2CCC(/C2=C/C2CCC2)[C@@H]1C(=O)Nc1ccc(F)c(C(F)(F)F)c1", "note": "(single isomer, unassigned) [Example 416]", "EC50": 1}, {"smiles": "COc1ccc(C2=NOC3CCCC23)cc1C(=O)N[C@@H]1C2CCC(/C2=C/C2CC2)[C@@H]1C(=O)Nc1ccc(F)c(C(F)(F)F)c1", "note": "(stereo partly drawn) [compound 440]", "EC50": 25}, {"smiles": "COc1ccc(C2=NOC3CC(CO)CC23)cc1C(=O)N[C@H]1[C@@H](C(=O)N[C@H](C)C2(C)CC2)[C@H]2CC[C@@H]1/C2=C\\c1csc(C)n1", "note": "(stereo partly drawn) [compound 742]", "EC50": 4.7}, {"smiles": "COc1ccc(-c2cc(C(NC(=O)C3CCOCC3)C(=O)O)ccc2F)cc1C(=O)N[C@H]1[C@@H](C(=O)Nc2ccc(F)c(C(F)(F)F)c2)[C@H]2CC[C@@H]1/C2=C\\C(C)C", "note": "(stereo partly drawn) [compound 942]", "EC50": 1.3}, {"smiles": "COc1ccc(C2=NOC3COCC23)cc1C(=O)N[C@H]1[C@@H](C(=O)NCc2ccnn2C)[C@H]2CC[C@@H]1/C2=C\\C1CC1", "note": "(stereo partly drawn) [compound 707]", "EC50": 1330}, {"smiles": "COc1ccc(C2=NOC(C3(O)CCCC3)C2)cc1C(=O)N[C@H]1[C@@H](C(=O)Nc2ccc(F)c(C(F)(F)F)c2)[C@H]2CC[C@@H]1/C2=C\\C1CC1", "note": "(single isomer, unassigned) [compound 488]", "EC50": 8.2}, {"smiles": "COc1ccc(-c2cc(C(OC(=O)N(C)C3CCC3)C(F)(F)F)ccc2F)cc1C(=O)N[C@@H]1C2CCC(/C2=C/C2CC2)[C@@H]1C(=O)Nc1ccc(F)c(C(F)(F)F)c1", "note": "(stereo partly drawn) [compound 209]", "EC50": 1}, {"smiles": "COc1ccc(-c2cc(C3=NOC4CC(CO)CC34)ccc2F)cc1C(=O)N[C@H]1[C@@H](C(=O)Nc2ccc(F)c(C(F)(F)F)c2)[C@H]2CC[C@@H]1/C2=C\\C1CCCC1", "note": "(stereo partly drawn) [compound 952]", "EC50": 1.5}, {"smiles": "COc1ccc(N2CCC(NC(=O)OC(C)(C)C)C2)cc1C(=O)N[C@@H]1C2CCC(/C2=C/C(F)(F)F)[C@@H]1C(=O)Nc1ccc(F)c(C(F)(F)F)c1", "note": "(stereo partly drawn) [compound 334]", "EC50": 1370}, {"smiles": "COc1cc(F)c(F)cc1C(=O)N[C@@H]1C2CCC(/C2=C/c2cnn(C)c2)[C@@H]1C(=O)Nc1ccc(F)c(C(F)(F)F)c1", "note": "(stereo partly drawn) [compound 66]", "EC50": 1700}, {"smiles": "COc1ccc(C2=NOC3CC(CO)CC23)cc1C(=O)N[C@H]1[C@@H](C(=O)Nc2ccc(F)c(C(F)(F)F)c2)[C@H]2CC[C@@H]1/C2=C\\C1CCCC1", "note": "(stereo partly drawn) [compound 457]", "EC50": 2.1}, {"smiles": "COc1c(F)cc(C2=NOC3CC(CO)CC23)cc1C(=O)N[C@H]1[C@@H](C(=O)N[C@H](C)C2(C)CC2(F)F)[C@H]2CC[C@@H]1/C2=C\\C1CC1", "note": "(stereo partly drawn) [compound 759]", "EC50": 1}, {"smiles": "COc1ccc(C2=NOC(C(C)(O)C(F)(F)F)C2)cc1C(=O)N[C@H]1[C@@H](C(=O)Nc2ccc(F)c(C(F)(F)F)c2)[C@H]2CC[C@@H]1/C2=C\\C1CC1", "note": "(single isomer, unassigned) [compound 517]", "EC50": 18}, {"smiles": "COc1ccc(C2=NOC3CC(C(O)C(F)(F)F)CC23)cc1C(=O)N[C@H]1[C@@H](C(=O)Nc2ccc(F)c(C(F)(F)F)c2)[C@H]2CC[C@@H]1/C2=C\\C1CC1", "note": "(stereo partly drawn) [compound 853]", "EC50": 3.6}, {"smiles": "COc1ccc(C2=NO[C@H]3COC[C@@H]23)cc1C(=O)N[C@H]1[C@@H](C(=O)Nc2ccc(F)c(C(F)(F)F)c2)[C@H]2CC[C@@H]1/C2=C\\CCC(F)(F)F", "note": "[compound 830]", "EC50": 3.4}, {"smiles": "COc1cc(F)c(F)cc1C(=O)N[C@@H]1C2CCC(/C2=C/c2cccc(OC(F)F)c2)[C@@H]1C(=O)Nc1ccc(F)c(C(F)(F)F)c1", "note": "(stereo partly drawn) [compound 27]", "EC50": 380}, {"smiles": "COc1ccc(-c2cc(C3=NOC4CC(O)CC34)ccc2F)cc1C(=O)N[C@H]1[C@@H](C(=O)Nc2ccc(F)c(C(F)(F)F)c2)[C@H]2CC[C@@H]1/C2=C\\C1CC1", "note": "(stereo partly drawn) [compound 909]", "EC50": 4}, {"smiles": "COc1ccc(-c2cc(C3=NOC4CC(O)CC34)ccc2F)cc1C(=O)N[C@H]1[C@@H](C(=O)Nc2ccc(F)c(C(F)(F)F)c2)[C@H]2CC[C@@H]1/C2=C\\C1CC1", "note": "(stereo partly drawn) [compound 908]", "EC50": 3.5}, {"smiles": "COc1ccc(-c2cc(C(C)OC(=O)Nc3ccc(F)cc3)ccc2F)cc1C(=O)N[C@@H]1C2CCC(/C2=C/C2CC2)[C@@H]1C(=O)Nc1ccc(F)c(C(F)(F)F)c1", "note": "(stereo partly drawn) [compound 226]", "EC50": 3}, {"smiles": "COc1ccc(C2=NO[C@H]3C[C@H](CO)CN23)cc1C(=O)N[C@H]1[C@@H](C(=O)Nc2ccc(F)c(C(F)(F)F)c2)[C@H]2CC[C@@H]1/C2=C\\CCC(F)(F)F", "note": "[compound 818]", "EC50": 2.2}, {"smiles": "COc1ccc(-c2cc(C(CO)NC(=O)C3CCOCC3)ccc2F)cc1C(=O)N[C@@H]1C2CCC(/C2=C/C2CC2)[C@@H]1C(=O)Nc1ccc(F)c(C(F)(F)F)c1", "note": "(stereo partly drawn) [compound 257]", "EC50": 16}, {"smiles": "COc1ccc(C2=NOC3CCCC23)cc1C(=O)N[C@H]1[C@@H](C(=O)Nc2ccc(F)c(C(F)(F)F)c2)[C@H]2CC[C@@H]1/C2=C\\C1CC1", "note": "(single isomer, unassigned) [compound 662]", "EC50": 360}, {"smiles": "COc1ccc(-c2cc(C(=O)O)ccc2F)cc1C(=O)N[C@@H]1C2CCC(/C2=C/C2CC2)[C@@H]1C(=O)NC1CCC1", "note": "(stereo partly drawn) [compound 202]", "EC50": 180}, {"smiles": "COc1ccc(-c2cc(CC(=O)O)ccc2F)cc1C(=O)N[C@@H]1C2CCC(/C2=C/C2CC2)[C@@H]1C(=O)Nc1ccc(F)c(C(F)(F)F)c1", "note": "(stereo partly drawn) [compound 189]", "EC50": 10}, {"smiles": "COc1ccc(C2=NOC3COCC23)cc1C(=O)N[C@H]1[C@@H](C(=O)NCc2ccccc2OC(F)(F)F)[C@H]2CC[C@@H]1/C2=C\\C1CC1", "note": "(stereo partly drawn) [compound 588]", "EC50": 82}, {"smiles": "O=C(N[C@H]1[C@@H](C(=O)Nc2ccc(F)c(C(F)(F)F)c2)[C@H]2CC[C@@H]1/C2=C\\C1CC1)c1cc(C2=NOC3CC(CO)CC23)ccc1OCCCF", "note": "(stereo partly drawn) [compound 787]", "EC50": 4.2}, {"smiles": "COCCOc1ccc(-c2cc(C(=O)O)ccc2F)cc1C(=O)N[C@@H]1C2CCC(/C2=C/C2CC2)[C@@H]1C(=O)Nc1ccc(F)c(C(F)(F)F)c1", "note": "(stereo partly drawn) [compound 200]", "EC50": 37}]}]}
